Article PMC8224630, “Cytotoxicity and Nitric Oxide Production Inhibitory Activities of Compounds Isolated from the Plant Pathogenic Fungus Curvularia sp” (Journal of Fungi, 2021)
Read-outs that look alike come from different tables or passages of the source.

Key:
[1] = system: nitric oxide (NO) production in RAW 264.7 cells; test: Nitric oxide (NO) production inhibitory assay, LPS-stimulated RAW 264.7 cells, Griess reagent; format: cell-based; conditions: for inhibition at 100 µg/mL: read-out: % of NO Inhibition at 100 µg/mL; for IC50: read-out: NO Production Inhibition IC50
Procedure: This assay was performed as previously described. […] After 24 h, 100 µL of Griess reagent was added to the samples for 10 min. […] Additionally, the data are presented as the IC50, which was calculated with GraphPad Prism 6.0 software.

in vitro = conditions: mouse
Procedure: (§1) Cell viability was measured by the MTT assay. RAW 264.7 cells were seeded at 4 × 10^4 cells/well in 96-well plates and incubated at 37 °C and 5% CO2 overnight. Cells were treated with different concentrations of tea extracts, including 3.125, 6.25, 12.5, 25, 50, and 100 µg/mL, for 24 h. After 24 h, cells were washed with PBS and incubated with 0.5 mM MTT reagent for 4 h. The detection of formazan at 570 nm was performed with a Biochrom EZ Read 400 ELISA microplate reader (Biochrom Ltd., Cambridge, UK). The data were calculated as IC50 values with GraphPad Prism 6.0 software.

[2] = Cytotoxicity assay against leukemic K562 cells, MTT; conditions: human, K562 leukemic cells
Procedure: (§2) Lung cancer A549 and colorectal cancer SW480 cells were maintained with Dulbecco’s modified Eagle’s medium (DMEM) containing 10% fetal bovine serum (FBS) and 1% penicillin/streptomycin. Leukemic K562 cells were cultured in RPMI-1640 supplemented with 10% fetal bovine serum (FBS) and 1% penicillin/streptomycin. All cells were cultured in 96-well plates at 37 °C in 5% CO2, followed by treatment with the sample for 24 h. After the incubation period, 0.5 mg/mL MTT was added to the cells and left for 4 h. The formazan was dissolved in DMSO and measured at 570 nm using Biochrom EZ Read 400 ELISA microplate reader (Biochrom Ltd., Cambridge, UK).

[3] = Cytotoxicity assay in mammalian cells (RAW 264.7), MTT; conditions: mouse, RAW 264.7 cells
Procedure: as §1

[4] = Cytotoxicity assay against lung cancer A549 cells, MTT; conditions: human, A549 lung cancer cells
Procedure: as §2

[5] = Cytotoxicity assay against colorectal cancer SW480 cells, MTT; conditions: human, SW480 colorectal cancer cells
Procedure: as §2

[6] = system: lung cancer (A549) cell line; parameters: method as in doi:10.1007/s10600-015-1259-y; conditions: 30 µg/mL; cited from earlier work
leukemic K562 cells = test: Cytotoxicity assay against leukemic K562 cells, MTT; conditions: Homo sapiens, K562, 24 h, read-out: IC50 cytotoxicity K562 (Leukemic Cells)
Procedure: as §2

lung cancer A549 cells = test: Cytotoxicity assay against lung cancer A549 cells, MTT; conditions: Homo sapiens, A549, 24 h, read-out: IC50 cytotoxicity A549 (Lung Cancer)
Procedure: as §2

[7] = system: colorectal cancer SW480 cells; test: Cytotoxicity assay against colorectal cancer SW480 cells, MTT; conditions: Homo sapiens, SW480, 24 h, read-out: IC50 cytotoxicity SW480 (Colorectal Cancer)
Procedure: as §2

[8] = Mus musculus, RAW264.7, 100 µg/mL, LPS 1 µg/mL, 24 h
[9] = Mus musculus, RAW264.7, LPS 1 µg/mL, 24 h

Structure (SMILES): C/C=C(\C)[C@@H](OC(C)=O)[C@@H](C)C1=CC(=O)C2=C(O[C@]3(C)CC[C@H]4O[C@@H](C(C)(C)O)CC[C@]4(C)[C@H]3[C@@H]2O)C1=O [Compound 3, stemphone]
- inhibition at 100 µg/mL ([1]; Mus musculus, RAW264.7, 24 h): 73.41 ± 0.44%
- IC50 ([1]; Mus musculus, RAW264.7, 24 h): 32.8 µM
- viability at 24 h, 100 µg/mL (in vitro): 71.4 ± 2.67%

Structure (SMILES): C/C1=C\C[C@]2(C)C(=O)C(O)=C([C@H](C)CO)[C@H]2C/C=C(\C)[C@@H](O)CC/C(C)=C/CC1 [Compound 6, terpestacin]
- NO Production Inhibition IC50 ([1]; LPS 1 µg/mL, 24 h): inactive
- inhibition at 100 µg/mL [1, 8]: 41 ± 3.36%
- viability at 24 h, 100 µg/mL [2]: 99.2 ± 3.84%
- viability at 24 h, 100 µg/mL [3]: 99.3 ± 2.51%
- viability at 24 h, 100 µg/mL [4]: 92 ± 3.75%
- viability at 24 h, 100 µg/mL [5]: 97.7 ± 1.04%

Structure (SMILES): CC[C@H](C)[C@@H](OC(C)=O)[C@@H](C)C1=CC(=O)C2=C(O[C@]3(C)CC[C@H]4O[C@@H](C(C)(C)O)CC[C@]4(C)C3=C2)C1=O [Compound 4, anhydrocochlioquinone A]
- inhibition ratio, cytotoxicity against A549 [6]: 41%
- viability at 24 h, 6.25 µg/mL [2]: 19.5 ± 2.62%
- viability at 24 h, 12.5 µg/mL [2]: 14 ± 2.31%
- viability at 24 h, 25 µg/mL [2]: 12.9 ± 0.34%
- viability at 24 h, 50 µg/mL [2]: 11.3 ± 0.4%
- viability at 24 h, 100 µg/mL [2]: 10.6 ± 0.2%
- IC50 (leukemic K562 cells): < 12.1 µM
- IC50 at 24 h [3]: < 12.1 µM
- viability at 24 h, 6.25 µg/mL [3]: 14.3 ± 0.73%
- viability at 24 h, 12.5 µg/mL [3]: 12.4 ± 0.47%
- viability at 24 h, 25 µg/mL [3]: 12.1 ± 0.42%
- viability at 24 h, 50 µg/mL [3]: 12.8 ± 0.7%
- viability at 24 h, 100 µg/mL [3]: 11.1 ± 0.43%
- viability at 24 h, 6.25 µg/mL [4]: 12.4 ± 0.17%
- viability at 24 h, 12.5 µg/mL [4]: 11.6 ± 1.05%
- viability at 24 h, 25 µg/mL [4]: 10.2 ± 0.17%
- viability at 24 h, 50 µg/mL [4]: 9.35 ± 0.52%
- viability at 24 h, 100 µg/mL [4]: 8.4 ± 0.58%
- IC50 (lung cancer A549 cells): < 12.1 µM
- viability at 24 h, 6.25 µg/mL [5]: 17.3 ± 0.33%
- viability at 24 h, 12.5 µg/mL [5]: 15.6 ± 0.39%
- viability at 24 h, 25 µg/mL [5]: 15.4 ± 0.42%
- viability at 24 h, 50 µg/mL [5]: 14.7 ± 0.24%
- viability at 24 h, 100 µg/mL [5]: 14.4 ± 0.4%
- IC50 [7]: < 12.1 µM

Structure (SMILES): CC[C@H](C)[C@@H](OC(C)=O)[C@@H](C)C1=C(N)C(=O)C2=C(O[C@]3(C)CC[C@H]4O[C@@H](C(C)(C)O)CC[C@]4(C)[C@H]3[C@@H]2O)C1=O [Compound 1, cochlioquinone N]
- inhibition at 100 µg/mL [1, 8]: 51.3 ± 1.65%
- IC50 [1, 9]: 53.7 µM
- melting point: 185 to 187 °C
- viability at 24 h, 100 µg/mL [2]: 81.1 ± 3.8%
- viability at 24 h, 100 µg/mL [3]: 97.14 ± 0.81%
- viability at 24 h, 100 µg/mL [4]: 88.5 ± 1.19%
- viability at 24 h, 100 µg/mL [5]: 82.6 ± 1.68%

Structure (SMILES): CCCC1C2=C(CCC3C(=O)OC(=O)C3=CC1CC)C(=O)OC2=O (stereo not shown) [Compound 5, curvulariahawadride]
- IC50 ([1]; LPS 1 µg/mL, 24 h): 12.8 µM
- IC50 ([1]; Mus musculus, RAW264.7, 24 h, LPS 1 µg/mL, 24 h): 12.9 µM
- inhibition at 100 µg/mL [1, 8]: 74 ± 1.14%

Structure (SMILES): CC[C@H](C)[C@@H](OC(C)=O)[C@@H](C)C1=CC(=O)C2=C(O[C@]3(C)CC[C@H]4O[C@@H](C(C)(C)O)CC[C@]4(C)[C@H]3[C@@H]2O)C1=O [Compound 2, cochlioquinone A]
- viability at 24 h, 6.25 µg/mL [2]: 71 ± 1.69%
- viability at 24 h, 12.5 µg/mL [2]: 38.4 ± 3.18%
- viability at 24 h, 25 µg/mL [2]: 21 ± 2.61%
- viability at 24 h, 50 µg/mL [2]: 13.3 ± 0.89%
- viability at 24 h, 100 µg/mL [2]: 12.5 ± 1.24%
- IC50 (leukemic K562 cells): 17.6 µM
- IC50 at 24 h [3]: < 11.7 µM
- viability at 24 h, 6.25 µg/mL [3]: 28.5 ± 1.98%
- viability at 24 h, 12.5 µg/mL [3]: 16.6 ± 0.52%
- viability at 24 h, 25 µg/mL [3]: 15 ± 0.29%
- viability at 24 h, 50 µg/mL [3]: 11.67 ± 0.08%
- viability at 24 h, 100 µg/mL [3]: 10.8 ± 0.09%
- viability at 24 h, 6.25 µg/mL [4]: 73.1 ± 1.09%
- viability at 24 h, 12.5 µg/mL [4]: 23.1 ± 1.84%
- viability at 24 h, 25 µg/mL [4]: 17.9 ± 1.93%
- viability at 24 h, 50 µg/mL [4]: 14.8 ± 2.54%
- viability at 24 h, 100 µg/mL [4]: 13.4 ± 0.48%
- IC50 (lung cancer A549 cells): 14.3 µM
- viability at 24 h, 6.25 µg/mL [5]: 30.8 ± 0.4%
- viability at 24 h, 12.5 µg/mL [5]: 23.4 ± 0.25%
- viability at 24 h, 25 µg/mL [5]: 17.6 ± 0.7%
- viability at 24 h, 50 µg/mL [5]: 15.6 ± 0.77%
- viability at 24 h, 100 µg/mL [5]: 14.9 ± 0.57%
- IC50 [7]: < 11.7 µM

Structure (SMILES): COc1ccc2c(c1)c(CC(=O)O)c(C)n2C(=O)c1ccc(Cl)cc1 [Indomethacin, reference compound]
- inhibition at 100 µg/mL [1, 8]: 77.45 ± 0.28%
- IC50 [1, 9]: 73.4 µM
